Assay results from the supplement of paper PMC10307832.

Experiments:
Assay in all cases: relative viability (nuclei count vs DMSO), 5 days (fraction); higher = more cells survive
[1] = compound: C1CNCCC1C2=CC(=NN2)C3=CC=NC=C3 + Cc1nc(NC(=O)N2CCC[C@H]2C(N)=O)sc1-c1ccnc(C(C)(C)C(F)(F)F)c1 [Alpelisib] (partner 2 µM)
Outline: (§1)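 The day after seeding in 1536-well plates, lung cancer cell lines were treated by pin tool with a single drug, or with a fixed anchor-drug dose together with five library-drug doses (not always all listed) in √10 steps. After 5 days, a combined fix-and-stain solution (final 0.05% Triton X-100, 1% formaldehyde, 1 ug/ml Hoechst) was added. Nuclei counted on 4× images gave relative viability as treated counts over vehicle counts, reported as the median of duplicate plates.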

[2] = compound: C1CNCCC1C2=CC(=NN2)C3=CC=NC=C3 + Cc1nc(Nc2ncc(C(=O)Nc3c(C)cccc3Cl)s2)cc(N2CCN(CCO)CC2)n1 [Dasatinib] (partner 0.075 µM)
Outline: as §1

[3] = compound: C[C@@H](N)c1ccc(C(=O)Nc2ccnc3[nH]ccc23)cc1 + COc1cccc2cc(-c3nc([C@H]4CC[C@H](C(=O)O)CC4)n4ncnc(N)c34)[nH]c12 [OSI-027] (partner 0.5 µM)
Outline: as §1

[4] = compound: C[C@@H](N)c1ccc(C(=O)Nc2ccnc3[nH]ccc23)cc1 + Nc1nc2[nH]cc(CCc3ccc(C(=O)N[C@@H](CCC(=O)O)C(=O)O)cc3)c2c(=O)[nH]1 [Pemetrexed] (partner 0.2 µM)
Outline: as §1

Row | Cell Line | relative viability ([1]; first compound 0.08 µM) | relative viability ([1]; first compound 0.8 µM) | relative viability ([1]; first compound 2.53 µM) | relative viability ([1]; first compound 8 µM) | relative viability ([2]; first compound 0.08 µM) | relative viability ([2]; first compound 0.8 µM) | relative viability ([2]; first compound 2.53 µM) | relative viability ([2]; first compound 8 µM) | relative viability ([3]; first compound 0.04 µM) | relative viability ([3]; first compound 0.1265 µM) | relative viability ([3]; first compound 0.4 µM) | relative viability ([3]; first compound 4 µM) | relative viability ([4]; first compound 0.04 µM) | relative viability ([4]; first compound 0.1265 µM) | relative viability ([4]; first compound 0.4 µM) | relative viability ([4]; first compound 1.265 µM) | relative viability ([4]; first compound 4 µM) | relative viability ([3]; first compound 1.265 µM)
1 | NCI-H322M | 1.39 | 0.7 | 0.933 | 0.761 | 0.24 | 0.228 | 0.247 | 0.282 | 0.656 | 0.586 | 0.63 | 0.706 | 0.79 | 0.654 | 0.588 | 0.48 | 0.602 | –
2 | NCI-H661 | 0.879 | 0.647 | 0.799 | 0.733 | 0.896 | 0.839 | 1.05 | 0.817 | 0.754 | 0.682 | 0.636 | 0.552 | 0.938 | 0.964 | 0.943 | 0.811 | 0.639 | 0.593
3 | NCI-H2228 | 0.769 | 0.872 | 0.851 | 0.617 | 0.594 | 0.572 | 0.531 | 0.484 | 0.581 | 0.618 | 0.65 | 0.543 | 0.342 | 0.385 | 0.302 | 0.347 | 0.327 | 0.786
4 | NCI-H1395 | 0.977 | 0.77 | 1.46 | 0.975 | 0.399 | 0.345 | 0.381 | 0.471 | 0.637 | 0.739 | 0.685 | 0.588 | 0.888 | 0.95 | 0.927 | – | 0.741 | 0.389
5 | NCI-H520 | 0.88 | 0.666 | 0.831 | 0.658 | 0.17 | 0.163 | 0.187 | 0.206 | 0.287 | 0.333 | 0.329 | 0.335 | 0.624 | 0.668 | 0.69 | 0.802 | 0.652 | 0.334
6 | NCI-H441 | – | 0.628 | 0.833 | 0.708 | 0.465 | 0.673 | 0.797 | 0.576 | 0.631 | 0.807 | 0.62 | 0.701 | 0.245 | 0.302 | 0.257 | 0.231 | 0.223 | –
